Results as given in patent US7932022B2, “Dual-labeled molecular constructs for detection of biochemical reactions” (BioArray Solutions, Ltd., priority 2002, dated 2011).
Like-named read-outs stand apart in the source and are kept apart here. Where no end group is shown, it is not given here. [ ]: non-standard residue; d: D form. The star is where a group is joined. Biotin = O=C1N[C@H]2[C@H](CS[C@H]2CCCCC(=O)*)N1; pY = N[C@@H](Cc1ccc(OP(=O)(O)O)cc1)C(=O)O

Assays:
[1] = test system: monoclonal antibodies specific for the phosphorylation modification; details: tyramide detection
Excerpt: […]

[2] = test system: phosphorylated peptide-specific monoclonal mouse IgG antibodies; details: three-antibody detection
Excerpt: After coupling, the particles were washed by using PBST. Then, all of the peptide-functionalized beads were combined into a test tube for assembly of microparticle array according to known prior art methods, such as LEAPS, and direct disposition assembly method previously described in Provisional Application Ser. No. 60/343,621, filed Dec. […] The assembled microparticle array is blocked by using 1% BSA in PBST. For immunodetection of phosphorylated peptides on the array, the chip is incubated with monoclonal antibodies specific for the phosphorylation modification. The incubation is carried out in a humid chamber for binding of the antibodies to the phosphorylated peptides. The unbound antibodies are washed away by using PBST. For the purpose of signal amplification, the chip is incubated with secondary antibodies specific for the primary monoclonal antibodies bound on the arrays. The signal may be further amplified by incubation of the chips with fluorescent-labeled antibodies specific for the secondary antibodies. After washing with PBST, the array is examined by using a fluorescent microscope according to known prior art methods, such as the READ assays.
The peptide-functionalized microparticles are assembled into a particle array. The chip was incubated with phosphorylated peptide-specific monoclonal mouse IgG antibodies followed by incubation with mouse IgG-specific secondary antibodies, and then Cy5-labeled third antibodies for detection using a fluorescent microscope. Fluorescence was detected by Cy5 signals. […] The error bars in FIG. 22 represent standard deviation of the respective mean intensities.

[3] = test system: phosphorylated peptide-specific monoclonal mouse IgG antibodies; details: three-antibody detection, six bead types

Substance: Biotin-KVEKIGEGT[pY]GVVYK [Ty-P-1]
- FITC signal intensity at 1000 ms integration [1]: 11,000 units
- Cy5 signal intensity at 1000 ms integration [2]: 15,000 units
- Cy5 signal intensity at 1000 ms integration [3]: approximately 14,000 units

Substance: Biotin-CKVEKIGEGT[pY]GVVYK [Peptide-P-1]
- Cy5 signal intensity at 1000 ms integration [3]: approximately 14,000 units

Substance: Biotin-CRRLIEDAE[pY]AARGK [Peptide-P-3]
- Cy5 signal intensity at 1000 ms integration [3]: approximately 14,000 units

Substance: Biotin-KVEKIGEGTYGVVYK [Ty-1]
- FITC signal intensity at 1000 ms integration [1]: approximately 700 units
- Cy5 signal intensity at 1000 ms integration [2]: approximately 1400 units
- Cy5 signal intensity at 1000 ms integration [3]: approximately 1000 units

Substance: Biotin-CEGPWLEEEEEA[pY]GWMDFK-Biotin [Peptide-P-2]
- FITC signal intensity at 1000 ms integration [1]: 15,000 units
- Cy5 signal intensity at 1000 ms integration [2]: 15,500 units
- Cy5 signal intensity at 1000 ms integration [3]: approximately 14,000 units
